# Marks after values point to notes of the source that are not given here. Ends that are not written are not given here.
# How the values were obtained:
# [1] = tested on: retired breeder male Sprague-Dawley rats; assay: ICP/BP and blood pressure after intracorporal injection of sialorphin; assay type: in vivo, rat; conditions: 10 and 100 μg intracorporal
# Method: Experiments were carried out on 9- to 10-month-old retired breeder male Sprague-Dawley rats weighing more than 500 g (as described in Melman et al. 2005). When measurements were complete, animals were killed by placement within a CO2 gas chamber. All protocols were approved by the Animal Use Committee and Internal Review board at the Albert Einstein College of Medicine.
# The sialorphin peptide (2 mg) was dissolved in 0.5 ml of 0.01 N acetic acid and then was vortexed, and the solution was centrifuged for a few seconds at approximately 1000 g and 4° C. (to gather all the liquid at the bottom of the tube). The stock solution was stored in 25-μl aliquots (100 μg) at −70° C. Before use, the stock was thawed on ice, and phosphate buffered saline (pH 7.4) was added to bring the volume to 150 μl.
# Intracorporal microinjection of sialorphin into rat corporal tissue was modified from previously described procedures, where plasmids were injected intracorporeally to investigate their effect on the ICP/BP ratio (Christ et al. 1998, 2004; Melman et al. 2005). […] The changes in ICP and systemic BP were recorded at both levels of neurostimulation. […] Mean ICP/BP (n=7) and standard deviation were calculated before and after treatment. Significant change in the ICP/BP value from that of the pretreatment group was determined by Student's t test.
# retired breeder rats = assay: Longest visually observed erection and ICP/BP after tadalafil, pVAX-hSlo or both; assay type: in vivo, rat; conditions: tadalafil 2.5 mg/kg orally 2 h before; pVAX-hSlo 1000 μg intracorporal 1 month before
# Method: (§1) In a second set of animals (retired breeder, male Sprague Dawley rats) in which the effect of tadalafil was to be measured alone or in combination with pVAX-hSlo, 1000 μg pVAX-hSlo was administered to 10 animals 1 month prior to determination of erectile function and gene expression. Five of these animals were treated with 2.5 mg/kg of tadalafil orally two hours prior to ICP/BP measurement. A third group of five animals were untreated controls, and the fourth group of five animals treated with 2.5 mg/kg of tadalafil orally. two hours prior to ICP/BP measurement.
# ICP/BP measurement. ICP/BP was measured essentially as previously described (Christ et al. 1998; Melman et al. 2003). Briefly, animals were anesthetized by intraperitoneal injection of pentobarbital sodium (35 mg/kg). An incision was made in the perineum, and the corpus cavernosum exposed. The cavernous nerves were identified adjacent to the prostate gland. Direct electrostimulation of a cavernous nerve was performed with a delicate stainless steel bipolar hook electrode attached to the multi-jointed clamp. […] Prior to electrostimulation the longest visually observed erection was measured. […] The changes in ICP and systemic BP were recorded at each level of neurostimulation. The mean ICP/BP, standard deviation, and analysis of variance were calculated for each of the treatment groups.
# [2] = tested on: Vcsa1 and Slo transcripts in corporal tissue; assay: Quantitative RT-PCR of Vcsa1 and Slo transcripts in corpora after tadalafil, pVAX-hSlo or both; assay type: in vivo, rat; conditions: tadalafil 2.5 mg/kg orally 2 h before; pVAX-hSlo 1000 μg 1 month before; or both
# Method: as §1
# RNA Isolation from corporal tissue. Following the ICP/BP measurement, animals were euthanized and corporal tissues isolated and flash frozen in liquid nitrogen. […]
# Measurement of gene expression by quantitative RT-PCR. RNA extracted either from corporal tissue or transfected corporal smooth muscle cells was used to analyze gene expression by quantitative RT-PCR. […] Real-time quantitative PCR analysis was performed using the 7300 real-time PCR system (Applied Biosystems, Foster City, Calif.).
# The PCR reactions for all samples were performed in 96-well plates, with 2 μl cDNA, 100 nM each primer, and 12.5 μl of Sybr Green in a 25-μl reaction volume. […] The relative quantified value for each target gene in corpora of treated rats is expressed as 2^−(Ct−Cc) (Ct and Cc are the mean threshold cycle differences after normalizing to RPL24). […]
# [3] = tested on: isolated corporal smooth muscle tissue; assay: Contractility (relaxation rate) of isolated corporal smooth muscle strips; parameters: species or system rat
# Method: Studies of contractility of isolated smooth muscle tissue were carried out as described previously (Chang et al. 2003, Spektor et al. 2002). Four longitudinal strips of cavernous tissue from the crura of old animals (n=4) were dissected free from the tunica albuginea and were suspended between two small surgical hooks in a tension-measuring device (Multimyograph Model 610M, Copenhagen, Denmark) that allows simultaneous monitoring of four muscle strips. Tissue was equilibrated for 90 min in 6 ml Krebs-Henseleit buffer composed of 110 mM NaCl, 4.8 mM. KCl, 2.5 mM CaCl2, 1.2 mM MgSO4, 1.2 mM KH2PO4, 25 mM NaHCO3, 11 mM glucose, and dextrose in glass-distilled water. Organ chambers were maintained at 37° C. and continuously bubbled with 95% O2 and 5% CO2 to maintain a mean pH of 7.4±0.1. Continuous recording of tension developed by the muscle strips was carried out using Powerlab software (Chart version 4.2.4, ADinstruments, CO) on a dedicated computer. Strips of corpus cavernosum first were precontracted with phenylephrine (10^−6 M). Then, relaxation was induced using CNP (10^−6 M). […] Results from four separate strips from four animals were averaged and the significance determined by the Student's t test.
compound,measurement,setting,value
"QHNPR [sialorphin, QHNPR]",Effect on systemic blood pressure,[1],no effect
CN1CC(=O)N2[C@H](c3ccc4c(c3)OCO4)c3[nH]c4ccccc4c3C[C@@H]2C1=O [tadalafil],"Longest erection time, difference to untreated control groups",retired breeder rats,about 100 seconds
same,Longest measured erection time,retired breeder rats,approximately 210 seconds
same,Vcsa1 expression increase versus untreated animals,[2],approximately 4 fold
C-type natriuretic peptide [CNP],Increase in the relaxation rate of the tissue,"[3]; 1 μM CNP, versus carrier",67%
same,Rate of Tension Loss,"[3]; strips precontracted with 1 μM phenylephrine, 1 μM CNP and/or 1 μg/ml sialorphin",0.087* g/min

# — US20090042208A1, “Assays for erectile and bladder dysfunction and vascular health” (priority 2007, published 2009)
